{
  "source": "ChEMBL document CHEMBL1201862",
  "about": "“PubChem BioAssay data set” (2004)",
  "test_in_all_cases": "NCI-60 cell line screen, 48 h",
  "key": {"HT-29": {"system": "HT-29"}, "HL-60": {"system": "HL-60"}, "SK-MEL-5": {"system": "SK-MEL-5"}, "M19-MEL": {"system": "M19-MEL"}, "UO-31": {"system": "UO-31"}, "OVCAR-8": {"system": "OVCAR-8"}, "SF-295": {"system": "SF-295"}, "NCI-H460": {"system": "NCI-H460"}, "UACC-62": {"system": "UACC-62"}, "SNB-75": {"system": "SNB-75"}, "DMS-273": {"system": "DMS-273"}, "EKVX": {"system": "EKVX"}, "SF-539": {"system": "SF-539"}, "KM-20L2": {"system": "KM-20L2"}, "MCF7": {"system": "MCF7"}, "NCI-H226": {"system": "NCI-H226"}, "SNB-78": {"system": "SNB-78"}, "A549": {"system": "A549"}, "LOX IMVI": {"system": "LOX IMVI"}, "HCT-116": {"system": "HCT-116"}, "CAKI-1": {"system": "CAKI-1"}, "NCI/ADR-RES": {"system": "NCI/ADR-RES"}, "SK-MEL-28": {"system": "SK-MEL-28"}, "KM12": {"system": "KM12"}, "DLD-1": {"system": "DLD-1"}, "DMS-114": {"system": "DMS-114"}, "CCRF-CEM": {"system": "CCRF-CEM"}, "OVCAR-3": {"system": "OVCAR-3"}, "XF498": {"system": "XF498"}, "U-251": {"system": "U-251"}, "SNB-19": {"system": "SNB-19"}, "SW-620": {"system": "SW-620"}, "HCC 2998": {"system": "HCC 2998"}, "MOLT-4": {"system": "MOLT-4"}, "HOP-18": {"system": "HOP-18"}, "K562": {"system": "K562"}, "NCI-H522": {"system": "NCI-H522"}, "OVCAR-5": {"system": "OVCAR-5"}, "A498": {"system": "A498"}, "UACC-257": {"system": "UACC-257"}, "SN12C": {"system": "SN12C"}, "OVCAR-4": {"system": "OVCAR-4"}, "HCT-15": {"system": "HCT-15"}, "RPMI-8226": {"system": "RPMI-8226"}, "HOP-62": {"system": "HOP-62"}, "RXF 393": {"system": "RXF 393"}, "COLO 205": {"system": "COLO 205"}, "SF-268": {"system": "SF-268"}, "IGROV-1": {"system": "IGROV-1"}, "NCI-H23": {"system": "NCI-H23"}},
  "note": "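The compound was tested at five concentrations on cells cultured in 96-well plates, with a 48-hour exposure period. The concentration for 50% growth inhibition is given as GI50.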 Calls of active or inactive are those of the source. Cut-off read from the data, not from the text of the source: active = GI50 up to about 1.1 µM and inactive = higher.",
  "data": [
    {"smiles": "C=C1CC(OC)(C(O)C(=O)N[C@H]2OCO[C@H]3C2O[C@H](C[C@H](O)COC)C(C)(C)C3OC)O[C@H](C)[C@@H]1C", "note": "(stereo not given in full)", "values": [
      {"measurement": "GI50", "setting": "HT-29", "result": "< 7.73 nM (active)"},
      {"measurement": "GI50", "setting": "HL-60", "result": "< 7.73 nM (active)"},
      {"measurement": "GI50", "setting": "SK-MEL-5", "result": "< 7.73 nM (active)"},
      {"measurement": "GI50", "setting": "M19-MEL", "result": "< 7.73 nM (active)"},
      {"measurement": "GI50", "setting": "UO-31", "result": "< 7.73 nM (active)"},
      {"measurement": "GI50", "setting": "OVCAR-8", "result": "< 7.73 nM (active)"},
      {"measurement": "GI50", "setting": "SF-295", "result": "< 7.73 nM (active)"},
      {"measurement": "GI50", "setting": "NCI-H460", "result": "< 7.73 nM (active)"},
      {"measurement": "GI50", "setting": "UACC-62", "result": "< 7.73 nM (active)"},
      {"measurement": "GI50", "setting": "SNB-75", "result": "< 7.73 nM (active)"},
      {"measurement": "GI50", "setting": "DMS-273", "result": "< 7.73 nM (active)"},
      {"measurement": "GI50", "setting": "EKVX", "result": "< 7.73 nM (active)"},
      {"measurement": "GI50", "setting": "SF-539", "result": "< 7.73 nM (active)"},
      {"measurement": "GI50", "setting": "KM-20L2", "result": "< 7.73 nM (active)"},
      {"measurement": "GI50", "setting": "MCF7", "result": "< 7.73 nM (active)"},
      {"measurement": "GI50", "setting": "NCI-H226", "result": "< 7.73 nM (active)"},
      {"measurement": "GI50", "setting": "SNB-78", "result": "< 7.73 nM (active)"},
      {"measurement": "GI50", "setting": "A549", "result": "< 7.73 nM (active)"},
      {"measurement": "GI50", "setting": "LOX IMVI", "result": "< 7.73 nM (active)"},
      {"measurement": "GI50", "setting": "HCT-116", "result": "< 7.73 nM (active)"},
      {"measurement": "GI50", "setting": "CAKI-1", "result": "< 7.73 nM (active)"},
      {"measurement": "GI50", "setting": "NCI/ADR-RES", "result": "< 7.73 nM (active)"},
      {"measurement": "GI50", "setting": "SK-MEL-28", "result": "< 7.73 nM (active)"},
      {"measurement": "GI50", "setting": "KM12", "result": "< 7.73 nM (active)"},
      {"measurement": "GI50", "setting": "DLD-1", "result": "< 7.73 nM (active)"},
      {"measurement": "GI50", "setting": "DMS-114", "result": "< 7.73 nM (active)"},
      {"measurement": "GI50", "setting": "CCRF-CEM", "result": "< 7.73 nM (active)"},
      {"measurement": "GI50", "setting": "OVCAR-3", "result": "< 7.73 nM (active)"},
      {"measurement": "GI50", "setting": "XF498", "result": "< 7.73 nM (active)"},
      {"measurement": "GI50", "setting": "U-251", "result": "< 7.73 nM (active)"},
      {"measurement": "GI50", "setting": "SNB-19", "result": "< 7.73 nM (active)"},
      {"measurement": "GI50", "setting": "SW-620", "result": "< 7.73 nM (active)"},
      {"measurement": "GI50", "setting": "HCC 2998", "result": "< 7.73 nM (active)"},
      {"measurement": "GI50", "setting": "MOLT-4", "result": "< 7.73 nM (active)"},
      {"measurement": "GI50", "setting": "HOP-18", "result": "< 7.73 nM (active)"},
      {"measurement": "GI50", "setting": "K562", "result": "< 7.73 nM (active)"},
      {"measurement": "GI50", "setting": "NCI-H522", "result": "< 7.73 nM (active)"},
      {"measurement": "GI50", "setting": "OVCAR-5", "result": "< 7.73 nM (active)"},
      {"measurement": "GI50", "setting": "A498", "result": "< 7.73 nM (active)"},
      {"measurement": "GI50", "setting": "UACC-257", "result": "< 7.73 nM (active)"},
      {"measurement": "GI50", "setting": "SN12C", "result": "< 7.73 nM (active)"},
      {"measurement": "GI50", "setting": "OVCAR-4", "result": "< 7.73 nM (active)"},
      {"measurement": "GI50", "setting": "HCT-15", "result": "< 7.73", "unit": "nM"},
      {"measurement": "GI50", "setting": "RPMI-8226", "result": "< 7.73 nM (active)"},
      {"measurement": "GI50", "setting": "HOP-62", "result": "< 7.73 nM (active)"},
      {"measurement": "GI50", "setting": "RXF 393", "result": "< 7.73 nM (active)"},
      {"measurement": "GI50", "setting": "COLO 205", "result": "< 7.73 nM (active)"},
      {"measurement": "GI50", "setting": "SF-268", "result": "< 7.73 nM (active)"},
      {"measurement": "GI50", "setting": "IGROV-1", "result": "< 7.73 nM (active)"},
      {"measurement": "GI50", "setting": "NCI-H23", "result": "< 7.73 nM (active)"}
    ]}
  ]
}
